For one test, the system named is acute lung disorder mice. Nature of the test: LPS-induced acute lung disorder, HE staining of lung tissue. It counts as in vivo, mouse. Conditions: 10 mg/kg intraperitoneally once a day for two weeks. The protocol:
Acute lung disorder was induced by administering lipopolysaccharide (LPS) to the tracheae and bronchi of mice (the details of a production method were as described in Non Patent Document 1). Erythromycin (10 mg/kg) was administered to 6-week-old wild-type mice (N=4, male C57BL/6N mice, manufactured by CLEA Japan, Inc.) and 6-week-old DEL-1-deficient mice (N=4, male C57BL/6N mice (manufactured by CLEA Japan, Inc.), a method for producing the deficient mice was as described in Non-Patent Document 1), by intraperitoneal administration once a day for a total of two weeks. After the administration, the lungs were extracted from each mouse and fixed, and then slice preparations were produced. Next, hematoxylin and eosin (HE) staining was performed. Observation images (magnifications: 10 times and 200 times) obtained with a microscope (manufactured by Nikon Corporation, ECLIPSE Ni-E) are shown in FIG. 7A to 7C.

Test [1] has as its system iCell mesenchymal stem cells. The test is described as follows: bone nodule measurement in mesenchymal stem cells induced from human iPS cells. It is filed as cell-based. The settings on record: 10 μg/mL for each; 15 days; bone differentiation medium. The protocol: iCell (registered trademark) mesenchymal stem cells (iCell (registered trademark) MSCs) (#01279, manufactured by Fujifilm Corporation) (1×10^4 cells/mL) obtained by inducing human mesenchymal stem cells from iPS cells, were cultured in α-MEM and a bone differentiation medium (containing 50 μg/mL ascorbic acid and 10 mM β-glycerol 2-phosphate). Ethanol (final concentration 0.1% by mass), or erythromycin, clarithromycin, or azithromycin (10 μg/mL for each) was added to the medium. The medium was exchanged every 3 days, and after 15 days, the cells were stained with Alizarin red S, followed by performing of bone nodule measurement. The results are shown in FIG. 18 (stained images) and FIG. 19 (graph showing the proportion of bone nodules). In FIG. 18 and FIG. 19, the ethanol (final concentration 0.1% by mass)-added group is a control. In FIG. 19, the symbol * indicates p≤0.05, the symbol ** indicates p≤0.01, the symbol *** indicates p≤0.001, and the symbol **** indicates p≤0.0001.

In test [2] the test system is experimental periodontitis model mice. The test is described as follows: bone regeneration in experimental periodontitis model mice (teeth ligated with silk threads). It is filed as in vivo, mouse. The source says: Experimental periodontitis model mice in which teeth are ligated with silk threads are useful models for inflammatory bone destruction research because inflammations and bone resorption occur in about 10 days after the ligation. The above-described experimental periodontitis models were produced by using 6-week-old wild-type mice (N=8, male C57BL/6N mice, manufactured by CLEA Japan, Inc.), 22-month-old aging mice (N=4, male C57BL/6N mice, manufactured by CLEA Japan, Inc.), and 6-week-old DEL-1-deficient mice (N=8, male C57BL/6N mice (manufactured by CLEA Japan, Inc.), a method for producing the deficient mice was as described in Non Patent Document 1), the silk threads were removed 10 days after the ligation, a remission phase of inflammation of 5 days passed, and in the wild-type mice, new bone formation was recognized at the site of resorbed bone defect while no repair mechanism of the periodontal tissue by DEL-1 was recognized.
The experimental periodontitis models described in Example 1 were produced by using 6-week-old wild-type mice (N=8, male C57BL/6N mice, manufactured by CLEA Japan, Inc.), 22-month-old aging mice (N=4, male C57BL/6N mice, manufactured by CLEA Japan, Inc.), and 6-week-old DEL-1-deficient mice (N=8, male C57BL/6N mice (manufactured by CLEA Japan, Inc.), a method for producing the deficient mice was as described in Non Patent Document 1), the silk threads were removed 10 days after the ligation to experimentally induce periodontitis, subsequently a bone regeneration period of 5 days was provided, and then the amount of regeneration of resorbed bone was measured using a stereomicroscope and image measurement software (manufactured by Nikon Corporation). Erythromycin (10 mg/kg) and ethanol (final concentration 0.1% by mass) were intraperitoneally administered once after the removal of the silk threads. In addition, DEL-1 (1 μg) and Fc control (0.84 μg) were directly inoculated into the gingiva after the removal of the silk threads. The results are shown in FIG. 3 (left: wild-type mice, right: DEL-1-deficient mice) and FIG. 4 (aging mice).
Next, the experimental periodontitis model described in Example 1 was produced by using 22-month-old aging mice (N=4, male C57BL/6N mouse, manufactured by CLEA Japan, Inc.), the silk threads were removed 10 days after the ligation to experimentally induce periodontitis, subsequently a bone regeneration period of 5 days was provided, and the amount of regeneration of resorbed bone was measured using a stereomicroscope and image measurement software (manufactured by Nikon Corporation). Erythromycin (ERM) (20 mg/kg), azithromycin (AZM) (20 mg/kg), clarithromycin (CLM) (20 mg/kg), and ethanol (final concentration 0.1% by mass) as a control were intraperitoneally administered once after the removal of the silk threads. […] In addition, there was no difference in the amount of bone regeneration between the macrolide antimicrobial agent-administered groups.

The test system of a further test is DEL-1. Conditions: versus resolvin D1 or DHEA; Non-Patent Document 1; cited from earlier work.

Turning to `CC[C@H]1OC(=O)[C@H](C)[C@@H](O[C@H]2C[C@@](C)(OC)[C@@H](O)[C@H](C)O2)[C@H](C)[C@@H](O[C@@H]2O[C@H](C)C[C@H](N(C)C)[C@H]2O)[C@](C)(O)C[C@@H](C)C(=O)[C@H](C)[C@@H](O)[C@]1(C)O` [erythromycin], the “tissue repair and restructuring of the alveolar structure (FIG. 7C)” value in the test with acute lung disorder mice (DEL-1-deficient mouse) was “normal tissue repair and restructuring of the alveolar structure were not recognized”. In the test on acute lung disorder mice (wild-type mouse), the “tissue repair and restructuring of the alveolar structure (FIG. 7B)” value was “normal tissue repair and restructuring of the alveolar structure were recognized”. Moreover, the “formation of bone nodules (FIG. 18, FIG. 19)” value in test [1] is reported as “the formation of bone nodules was recognized”. Besides, the “bone regeneration (FIG. 3)” value is listed as “bone regeneration was recognized irrespective of the presence or absence of the administration of erythromycin” in test [2] (6-week-old wild-type mice, erythromycin 10 mg/kg intraperitoneally once, 5 days regeneration period) and “bone regeneration was not recognized” in test [2] (DEL-1-deficient mice, erythromycin 10 mg/kg intraperitoneally once or DEL-1 1 μg into the gingiva, 5 days). Besides, in test [2] (22-month-old aging mice, 20 mg/kg intraperitoneally once, 5 days regeneration period), the “bone regeneration (FIG. 9)” value is listed as “bone regeneration was recognized”. Also, in test [2] (22-month-old aging mice, erythromycin 10 mg/kg intraperitoneally once or DEL-1 1 μg into the gingiva, 5 days), the “bone regeneration (FIG. 4)” value is “bone regeneration was recognized”. Moreover, the “DEL-1 induction potency relative to resolvin D1 or DHEA” value with DEL-1 is “about three”.

The values above are taken from patent US20240382508A1, “REGENERATIVE AGENT FOR BONE TISSUE AND LUNG TISSUE, AND PHARMACEUTICAL COMPOSITION FOR REGENERATING BONE TISSUE AND LUNG TISSUE” (NIIGATA UNIVERSITY, priority 2021, published 2024).
